Results reported in article PMC12155096 (International Journal of Molecular Sciences, 2025).
Counter-ions that a name gives are not always drawn. Like-named read-outs stand apart in the source and are kept apart here.

Experiments:
[1] = biological target: Photinus pyralis (firefly) luciferase (Photinus pyralis, UniProt P08659); assay: biochemical; format: biochemical
human CYP2C9 = human CYP2C9 (Homo sapiens, UniProt P11712)
CYP3A4 = CYP3A4 (Homo sapiens, UniProt P08684)
human CYP1A2 = biological target: T1, human CYP1A2 (Homo sapiens, UniProt P05177); assay: biochemical
T1 sequence (P05177 1-516): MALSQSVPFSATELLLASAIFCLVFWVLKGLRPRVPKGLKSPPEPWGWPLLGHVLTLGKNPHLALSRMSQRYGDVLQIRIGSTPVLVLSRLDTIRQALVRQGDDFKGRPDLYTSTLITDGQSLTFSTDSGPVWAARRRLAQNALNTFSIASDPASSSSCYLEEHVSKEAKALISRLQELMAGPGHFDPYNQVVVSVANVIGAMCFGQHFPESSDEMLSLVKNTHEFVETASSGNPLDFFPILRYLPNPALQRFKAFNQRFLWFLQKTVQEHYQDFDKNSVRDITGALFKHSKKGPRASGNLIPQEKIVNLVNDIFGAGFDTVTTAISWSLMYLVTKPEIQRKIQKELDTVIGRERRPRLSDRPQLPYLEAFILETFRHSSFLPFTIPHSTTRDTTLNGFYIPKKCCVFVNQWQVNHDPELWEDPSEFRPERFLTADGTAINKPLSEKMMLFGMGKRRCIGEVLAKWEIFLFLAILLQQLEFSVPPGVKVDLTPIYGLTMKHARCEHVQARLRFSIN

human CYP2C19 [2] = biological target: T2, human CYP2C19 (Homo sapiens, UniProt P33261); assay: biochemical
human CYP2D6 = human CYP2D6 (Homo sapiens, UniProt P10635); assay: biochemical
human CYP2C19 [3] = biological target: T2, human CYP2C19
[4] = CYP1A2 IC50 (half-maximal inhibitory concentration)
[5] = CYP2D6 IC50 (half-maximal inhibitory concentration)

Chain of human CYP2D6 (P10635 whole entry): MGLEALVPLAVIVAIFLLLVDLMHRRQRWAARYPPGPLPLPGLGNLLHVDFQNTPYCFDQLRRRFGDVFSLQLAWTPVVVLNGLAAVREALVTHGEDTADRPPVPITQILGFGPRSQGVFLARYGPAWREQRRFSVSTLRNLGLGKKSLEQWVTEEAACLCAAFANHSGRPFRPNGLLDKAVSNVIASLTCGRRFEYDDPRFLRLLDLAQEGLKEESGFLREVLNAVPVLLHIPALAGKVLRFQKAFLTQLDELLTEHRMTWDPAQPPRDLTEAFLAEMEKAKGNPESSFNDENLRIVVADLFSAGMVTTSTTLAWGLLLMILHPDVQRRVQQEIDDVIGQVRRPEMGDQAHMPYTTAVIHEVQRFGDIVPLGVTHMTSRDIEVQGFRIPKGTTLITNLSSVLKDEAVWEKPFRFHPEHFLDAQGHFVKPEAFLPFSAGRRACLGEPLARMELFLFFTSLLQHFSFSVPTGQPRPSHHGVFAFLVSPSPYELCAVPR
Chain of CYP3A4 (P08684 whole entry): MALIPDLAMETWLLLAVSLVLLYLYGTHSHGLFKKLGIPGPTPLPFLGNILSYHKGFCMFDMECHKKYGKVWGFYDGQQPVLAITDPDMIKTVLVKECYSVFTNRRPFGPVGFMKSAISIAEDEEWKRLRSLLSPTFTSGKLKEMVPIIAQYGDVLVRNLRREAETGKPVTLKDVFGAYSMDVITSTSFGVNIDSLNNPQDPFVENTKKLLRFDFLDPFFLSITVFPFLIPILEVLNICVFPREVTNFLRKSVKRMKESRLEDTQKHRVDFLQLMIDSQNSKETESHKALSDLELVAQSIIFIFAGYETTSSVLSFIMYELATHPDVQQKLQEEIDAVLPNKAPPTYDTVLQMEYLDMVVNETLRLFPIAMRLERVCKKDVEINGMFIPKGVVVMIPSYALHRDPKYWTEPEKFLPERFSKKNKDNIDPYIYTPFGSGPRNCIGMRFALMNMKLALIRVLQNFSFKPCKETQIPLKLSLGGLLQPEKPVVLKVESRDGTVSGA
Chain of human CYP2C9 (P11712 whole entry): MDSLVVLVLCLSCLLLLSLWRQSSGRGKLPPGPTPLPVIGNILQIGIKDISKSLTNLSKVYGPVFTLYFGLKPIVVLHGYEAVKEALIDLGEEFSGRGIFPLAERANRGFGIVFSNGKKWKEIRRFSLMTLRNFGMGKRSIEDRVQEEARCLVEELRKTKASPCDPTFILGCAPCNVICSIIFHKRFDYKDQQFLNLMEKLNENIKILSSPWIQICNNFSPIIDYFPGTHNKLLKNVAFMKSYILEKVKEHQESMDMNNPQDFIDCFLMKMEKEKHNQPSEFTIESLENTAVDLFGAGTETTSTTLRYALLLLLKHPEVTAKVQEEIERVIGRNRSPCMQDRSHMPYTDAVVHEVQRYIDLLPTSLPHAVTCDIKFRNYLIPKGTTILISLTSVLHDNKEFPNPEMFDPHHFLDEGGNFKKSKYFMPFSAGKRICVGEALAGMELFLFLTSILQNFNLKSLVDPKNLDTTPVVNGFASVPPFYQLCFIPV
T2 sequence (P33261 whole entry): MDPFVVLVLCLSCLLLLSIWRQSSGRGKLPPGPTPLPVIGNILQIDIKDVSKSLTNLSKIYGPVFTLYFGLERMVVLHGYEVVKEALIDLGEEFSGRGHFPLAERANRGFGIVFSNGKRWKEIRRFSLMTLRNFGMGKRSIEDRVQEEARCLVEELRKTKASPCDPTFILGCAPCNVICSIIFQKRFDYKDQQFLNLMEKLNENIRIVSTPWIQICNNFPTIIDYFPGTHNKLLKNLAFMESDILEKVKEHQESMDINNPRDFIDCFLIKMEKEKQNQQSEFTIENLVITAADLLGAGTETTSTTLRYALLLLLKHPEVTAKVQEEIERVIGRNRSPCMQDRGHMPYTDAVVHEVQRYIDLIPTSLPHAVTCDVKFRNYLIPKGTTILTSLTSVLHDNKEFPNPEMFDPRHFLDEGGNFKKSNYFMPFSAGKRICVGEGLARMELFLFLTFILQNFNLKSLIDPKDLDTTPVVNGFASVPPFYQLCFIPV
Chain of Photinus pyralis (firefly) luciferase (P08659 whole entry): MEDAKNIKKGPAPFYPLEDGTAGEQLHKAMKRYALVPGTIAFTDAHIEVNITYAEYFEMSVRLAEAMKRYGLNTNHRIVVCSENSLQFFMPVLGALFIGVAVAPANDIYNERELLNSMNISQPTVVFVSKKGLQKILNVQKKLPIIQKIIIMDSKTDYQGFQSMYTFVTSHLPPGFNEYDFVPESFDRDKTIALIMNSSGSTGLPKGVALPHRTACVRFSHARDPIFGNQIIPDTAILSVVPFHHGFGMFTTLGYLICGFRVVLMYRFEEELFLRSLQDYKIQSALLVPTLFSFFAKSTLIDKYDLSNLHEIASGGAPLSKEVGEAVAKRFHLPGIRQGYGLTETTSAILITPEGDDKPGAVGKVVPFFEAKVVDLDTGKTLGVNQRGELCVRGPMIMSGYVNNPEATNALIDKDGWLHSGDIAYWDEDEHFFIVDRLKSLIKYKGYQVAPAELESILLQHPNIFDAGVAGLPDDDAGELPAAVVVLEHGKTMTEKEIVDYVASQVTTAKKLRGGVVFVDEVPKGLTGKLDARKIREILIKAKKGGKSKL

SMILES	Luciferase IC50 [1]	CYP2C9 IC50 (human CYP2C9)	CYP3A4 IC50 (CYP3A4)	IC50 (human CYP1A2; CYP1A2 IC50) [µM]	IC50 (human CYP2C19 [2]; CYP2C19 IC50) [µM]	IC50 (human CYP2D6; CYP2D6 IC50) [µM]	CYP2C19 IC50 (human CYP2C19 [3])	IC50 [1] [µM]	Luciferase IC50 (half-maximal inhibitory concentration) [1]	CYP2C9 IC50 (half-maximal inhibitory concentration) (human CYP2C9)	CYP2C19 IC50 (half-maximal inhibitory concentration) (human CYP2C19 [3])	CYP3A4 IC50 (half-maximal inhibitory concentration) (CYP3A4)	IC50 (human CYP1A2; [4]) [µM]	IC50 (human CYP2D6; [5]) [µM]	IC50 (human CYP1A2) [µM]	IC50 (human CYP2C19 [2]) [µM]	IC50 (human CYP2D6) [µM]
CCCCC(CC)CNCC(CC)CCCC (stereo not drawn) [2,2'-Diethylhexylamine]	Inactive	Inactive	Inactive	47.4	51.3	0.31											
CCN(CC)CCCN(c1ccccc1)C1Cc2ccccc2C1 [Aprindine hydrochloride]	Inactive	Inactive	Inactive	22.2	41.3	0.44											
CN1CC2c3ccccc3Oc3ccc(Cl)cc3C2C1 (stereo not drawn) [Asenapine]	Inactive	Inactive	Inactive	7.55		0.09	Inactive										
c1ccc2c(c1)-c1cccc3c1c-2cc1ccccc13 [Benzo(b)fluoranthene]		Inactive	Inactive	0.69	10.5	30		5.37									
c1ccc2c(c1)c1cccc3ccc4cccc2c4c31 [Benzo(e)pyrene]	Inactive	Inactive	Inactive	0.1		55.4	Inactive										
Cc1ccc(Cl)c(OCC(O)CNC(C)(C)C)c1 (stereo not drawn) [Bupranolol]									Inactive	Inactive	Inactive	Inactive	15.5	0.98			
CCCCc1cc2ccccc2c(OCCN(C)C)n1 [Dimethisoquin hydrochloride]									Inactive	Inactive		Inactive			0.47 ± 0.03	39.2 ± 6.35	4.36
CCc1ccc(C2CCNCC2)cc1 [Enefexine]	Inactive	Inactive	Inactive				Inactive								23.2		0.42
CCN(CC)CCNc1ccc(CO)c2sc3ccccc3c(=O)c12 [Hycanthone]	Inactive	Inactive	Inactive	0.58		3.77	Inactive										
CN1[C@@H]2CC[C@H]1C[C@@H](OC(=O)c1cc(Cl)cc(Cl)c1)C2 [MDL 72222]									Inactive	Inactive	Inactive	Inactive	14.6	0.05			
CCN(CC)CCCC(C)Nc1c2ccc(Cl)cc2nc2ccc(OC)cc12 (stereo not drawn) [Quinacrine]	Inactive	Inactive	Inactive	2.2		0.18	Inactive										
